# The source made the active and inactive calls. No cut-off for these calls is given here.
# Experiments:
# [1] = Compound was evaluated for its concentration for antiviral activity against the replication of herpes simplex virus type 1 in monkey kidney cells; format: functional, Cercopithecidae
# [2] = tested on: L1210; experiment: Compound was evaluated for antitumor activity against L-1210 cell lines in culture; format: functional, Mus musculus
# [3] = tested on: B16; experiment: Compound was evaluated for antitumor activity against B16 melanoma cell lines in culture; format: functional, Mus musculus
# [4] = tested on: L1210; experiment: Compound was evaluated for antitumor activity against L-1210 cell lines in culture; IN-Inactive at 10E-4 concentration; format: functional, cell-based; conditions: Mus musculus
# [5] = tested on: B16; experiment: Compound was evaluated for antitumor activity against B16 melanoma cell lines in culture; IN-Inactive at 10E-4 concentration; format: functional, cell-based; conditions: Mus musculus
Structure (SMILES),ID90 [1] [µM],Inhibition [2] [µM],Inhibition [3] [µM],Inhibition [4],Inhibition [5]
C#Cc1cn([C@@H]2O[C@H](CO)[C@@H](O)[C@@H]2F)c(=O)nc1N,50,~60,~60,–,–
C#Cc1cn([C@@H]2O[C@H](CO)[C@@H](O)[C@@H]2N=[N+]=[N-])c(=O)[nH]c1=O,–,–,–,inactive,inactive
